System: PC12 cells
Test: Western blot of LC3 II/LC3 I in the autophagy flow assay
Assay type: cell-based
Settings: GENI group compared with the control group
Procedure: Western blot analysis for p-AMPK α, AMPK α, p-mTOR, mTOR, p-ULK1, ULK1, and LC3-I/II was conducted according to the information described in the materials and methods section of Supplementary Information.
1.3. Western blot analysis.
For PC12 cell samples, we seeded 2 × 10^6 PC12 cells in each 60 mm dish containing 5 mL of DMEM and incubated the dish for 24 h. For the dose-dependent experiment of GENI, GENI (1, 3 and 10 μM) was added to the dishes and incubated for a period of time (2 hours for p-AMPK α, AMPK α, 48 hours for p-mTOR, mTOR and p-ULK1, ULK1; 8 hours for LC3-I/II). Cells were then collected, lysed using RAPI lysis buffer and centrifuged. The supernatants of each group were used as protein samples. For the protein samples of autophagy flow assay, we seeded 2 × 10^6 PC12 cells in each 60 mm dish containing 5 mL of DMEM and incubated the dish for 24 h.
The GENI, rapamycin and inhibitors, such as chloroquine and 3-MA were added according to the method of autophagy flow assay. After treatment of 18 h, cells were then collected, lysed using RAPI lysis buffer and centrifuged. […] The protein concentration was measured with a BCA assay kit (Beijing Cowin Biotech Company, Beijing, China). […] Bands were quantitatively measured using ImageJ software (National Institutes of Health, Bethesda, MD, USA).

Compound: CC(C)CCOC(=O)C1=CO[C@@H](O[C@@H]2O[C@H](CO)[C@@H](O)[C@H](O)[C@H]2O)C2C(CO)=CCC12 (stereo partly shown) [GENI, Geniposidic 4-isoamyl ester]
- LC3 II at the protein level: significantly increased
